From ChEMBL document CHEMBL5331093, “Identification of "dual-site"-binding diarylpyrimidines targeting both NNIBP and the NNRTI adjacent site of the HIV-1 reverse transcriptase” (Eur J Med Chem, 2023)
≈ marks a conversion by molar mass, not a printed value.

Assays:
[1] = Selectivity index, ratio of CC50 cytotoxicity against human MT4 cells to EC50 for anti-HIV activity against wild type HIV-1 IIIB infected in human MT4 cells; format: toxicity, cell-based; settings: read-out: Ratio CC50/EC50
[2] = Selectivity index, ratio of CC50 cytotoxicity against human MT4 cells to EC50 for anti-HIV activity against NNRTI-resistant HIV-1 RES056 harboring RT K103N/Y181C double mutant infected in human MT4 cells; format: toxicity, cell-based; settings: read-out: Ratio CC50/EC50
[3] = Resistance factor, ratio of EC50 for anti-HIV activity against NNRTI-resistant HIV-1 RES056 harboring RT K103N/Y181C double mutant infected in human MT4 cells to EC50 for anti-HIV activity against wild type HIV-1 IIIB infected in human MT4 cells; format: functional
[4] = test system: Human immunodeficiency virus 1; assay: Anti-HIV activity against wild type HIV-1 IIIB infected in human MT4 cells assessed as inhibition of virus-induced cytopathic effect incubated for 5 days by MTT assay; format: functional, organism-based; settings: Human immunodeficiency virus 1, IIIB, MT4, 120 h
[5] = test system: Human immunodeficiency virus 1; assay: Anti-HIV activity against NNRTI-resistant HIV-1 RES056 harboring RT K103N/Y181C double mutant infected in human MT4 cells assessed as inhibition of virus-induced cytopathic effect incubated for 5 days by MTT assay; format: functional, organism-based; settings: Human immunodeficiency virus 1, RES056, MT4, 120 h
[6] = test system: Human immunodeficiency virus 1; assay: Anti-HIV activity against NNRTI-resistant HIV-1 harboring RT L100I mutant infected in human MT4 cells assessed as inhibition of virus-induced cytopathic effect incubated for 5 days by MTT assay; format: functional, organism-based; settings: Human immunodeficiency virus 1, MT4, 120 h
[7] = test system: Human immunodeficiency virus 1; assay: Anti-HIV activity against NNRTI-resistant HIV-1 harboring RT K103N mutant infected in human MT4 cells assessed as inhibition of virus-induced cytopathic effect incubated for 5 days by MTT assay; format: functional, organism-based; settings: Human immunodeficiency virus 1, MT4, 120 h
[8] = test system: Human immunodeficiency virus 1; assay: Anti-HIV activity against NNRTI-resistant HIV-1 harboring RT Y181C mutant infected in human MT4 cells assessed as inhibition of virus-induced cytopathic effect incubated for 5 days by MTT assay; format: functional, organism-based; settings: Human immunodeficiency virus 1, MT4, 120 h
[9] = test system: Human immunodeficiency virus 1; assay: Anti-HIV activity against NNRTI-resistant HIV-1 harboring RT Y188L mutant infected in human MT4 cells assessed as inhibition of virus-induced cytopathic effect incubated for 5 days by MTT assay; format: functional, organism-based; settings: Human immunodeficiency virus 1, MT4, 120 h
[10] = test system: Human immunodeficiency virus 1; assay: Anti-HIV activity against NNRTI-resistant HIV-1 harboring RT E138K mutant infected in human MT4 cells assessed as inhibition of virus-induced cytopathic effect incubated for 5 days by MTT assay; format: functional, organism-based; settings: Human immunodeficiency virus 1, MT4, 120 h
[11] = test system: Human immunodeficiency virus 1; assay: Anti-HIV activity against NNRTI-resistant HIV-1 harboring RT F227L/V106A double mutant infected in human MT4 cells assessed as inhibition of virus-induced cytopathic effect incubated for 5 days by MTT assay; format: functional, organism-based; settings: Human immunodeficiency virus 1, MT4, 120 h
[12] = biological target: Human immunodeficiency virus type 1 reverse transcriptase (Human immunodeficiency virus 1, UniProt Q72547); assay: Inhibition of wild type recombinant HIV-1 reverse transcriptase assessed as reduction of biotin-dUTP incorporation into […] using ABTS as substrate incubated for 1 hrs by ELISA analysis
[13] = Cytotoxicity against human MT4 cells assessed as reduction in cell viability incubated for 5 days by MTT assay; format: toxicity, cell-based; settings: time 5 day
[14] = Aqueous solubility of the compound at pH 2.0; format: physicochemical; settings: aqueous medium
[15] = Aqueous solubility of the compound at pH 7.0; format: physicochemical; settings: aqueous medium
[16] = Aqueous solubility of the compound at pH 7.4; format: physicochemical; settings: aqueous medium

In the case of `C#CCNC(=O)/C=C/c1cnc(Nc2ccc(C#N)cc2)nc1Oc1c(C)cc(C#N)cc1C`, the selectivity ratio [1] is reported as 27100, the selectivity ratio [2] is reported as 109 and the “Ratio EC50” value [3] is reported as 248.

`Cc1cc(C#N)cc(C)c1Oc1nc(Nc2ccc(C#N)cc2)ncc1SCC(=O)NCCCN1CCOCC1` showed an EC50 [4] of 0.00341 µM, an EC50 [5] of 0.386 µM and a selectivity ratio [1] of 6930. The selectivity ratio [2] was 61, the “Ratio EC50” value [3] was 113 and the EC50 [6] was 0.0258 µM. For the same compound, the EC50 [7] was 0.00278 µM, the EC50 [8] was 0.0309 µM and the EC50 [9] was 0.0946 µM. The EC50 [10] was 0.0381 µM, the EC50 [11] was 0.231 µM and the IC50 [12] was 0.113 µM.

`COCCNC(=O)C#Cc1cnc(Nc2ccc(C#N)cc2)nc1Oc1c(C)cc(C#N)cc1C` gave an EC50 [4] of 0.00204 µM, an EC50 [5] of 0.0357 µM and a CC50 at 120 h [13] of 13.6 µM. For the same compound, the selectivity ratio [1] was 6650, the selectivity ratio [2] was 379 and the “Ratio EC50” value [3] was 18. For the same compound, the EC50 [6] was 0.00606 µM, the EC50 [7] was 0.00236 µM and the EC50 [8] was 0.0096 µM. For the same compound, the EC50 [9] was 0.0143 µM, the EC50 [10] was 0.00627 µM and the EC50 [11] was 0.0611 µM. The IC50 [12] was 0.019 µM, the solubility [14] was 22.8 µg/mL (≈ 48.9 µM) and the solubility [15] was 8.27 µg/mL (≈ 17.7 µM). It also gave a solubility [16] of 7.84 µg/mL (≈ 16.8 µM).

With `COC(=O)C1CCC(NC(=O)C#Cc2cnc(Nc3ccc(C#N)cc3)nc2Oc2c(C)cc(C#N)cc2C)CC1` (centres undefined) the EC50 [4] was 0.00638 µM, the EC50 [5] was 0.664 µM and the CC50 at 120 h [13] was 11.5 µM. For the same compound, the selectivity ratio [1] was 1800, the selectivity ratio [2] was 17 and the “Ratio EC50” value [3] was 104. The EC50 [6] was 0.131 µM, the EC50 [7] was 0.0204 µM and the EC50 [8] was 0.101 µM. For the same compound, the EC50 [9] was 0.171 µM, the EC50 [10] was 0.0269 µM and the EC50 [11] was 3.21 µM. It also gave an IC50 [12] of 0.185 µM.

In the case of `Cc1cc(C#N)cc(C)c1Oc1nc(Nc2ccc(C#N)cc2)ncc1C#CC(=O)NCCN1CCN(S(C)(=O)=O)CC1`, the EC50 [4] is reported as 0.0111 µM, the EC50 [5] is reported as 0.774 µM and the CC50 at 120 h [13] is reported as 4.89 µM. The selectivity ratio [1] was 440 and the “Ratio EC50” value [3] was 70.

With `Cc1cc(C#N)cc(C)c1Oc1nc(Nc2ccc(C#N)cc2)nc(N)c1Br` [ETRAVIRINE] the EC50 [5] was 0.0234 µM, the CC50 at 120 h [13] was > 4.59 µM and the EC50 [6] was 0.00572 µM. It also gave an EC50 [7] of 0.00278 µM, an EC50 [10] of 0.00532 µM and an EC50 [11] of 0.0168 µM.

Compound `Cc1cc(C#N)cc(C)c1Oc1nc(Nc2ccc(C#N)cc2)ncc1C#CC(=O)NCCN1CCN(C(=O)OC(C)(C)C)CC1` has an EC50 [4] of 0.0183 µM, an EC50 [5] of 4.01 µM and a CC50 at 120 h [13] of 22.4 µM. For the same compound, the selectivity ratio [1] was 1220, the selectivity ratio [2] was 6 and the “Ratio EC50” value [3] was 219.

`C#CCNC(=O)C#Cc1cnc(Nc2ccc(C#N)cc2)nc1Oc1c(C)cc(C#N)cc1C` showed an EC50 [4] of 0.00615 µM, an EC50 [5] of 0.814 µM and a CC50 at 120 h [13] of 7.02 µM. For the same compound, the selectivity ratio [1] was 1140, the selectivity ratio [2] was 9 and the “Ratio EC50” value [3] was 132. The EC50 [6] was 0.125 µM, the EC50 [7] was 0.0152 µM and the EC50 [8] was 0.0872 µM. The EC50 [9] was 0.155 µM, the EC50 [10] was 0.0272 µM and the EC50 [11] was 0.452 µM.

In the case of `CCOC(=O)C#Cc1cnc(Nc2ccc(C#N)cc2)nc1Oc1c(C)cc(C#N)cc1C`, the EC50 [4] is reported as 0.00435 µM, the EC50 [5] is reported as 0.133 µM and the CC50 at 120 h [13] is reported as 34.5 µM. For the same compound, the selectivity ratio [1] was 7940, the selectivity ratio [2] was 260 and the “Ratio EC50” value [3] was 31. It also gave an EC50 [6] of 0.0109 µM, an EC50 [7] of 0.0052 µM and an EC50 [8] of 0.0136 µM. The EC50 [9] was 0.0103 µM, the EC50 [10] was 0.00972 µM and the EC50 [11] was 0.0159 µM. For the same compound, the IC50 [12] was 0.102 µM.

In the case of `Cc1cc(C#N)cc(C)c1Oc1nc(Nc2ccc(C#N)cc2)ncc1C#CC(=O)NCCOCCO`, the EC50 [4] is reported as 0.0105 µM, the EC50 [5] is reported as 0.818 µM and the CC50 at 120 h [13] is reported as 9.38 µM. The selectivity ratio [1] was 890, the selectivity ratio [2] was 11 and the “Ratio EC50” value [3] was 78.

`Cc1cc(C#N)cc(C)c1Oc1nc(Nc2ccc(C#N)cc2)ncc1C#CC(=O)NC1CC1` showed an EC50 [4] of 0.00478 µM, an EC50 [5] of 0.313 µM and a CC50 at 120 h [13] of 5.3 µM. The selectivity ratio [1] was 1110, the selectivity ratio [2] was 17 and the “Ratio EC50” value [3] was 66. The EC50 [6] was 0.111 µM, the EC50 [7] was 0.0133 µM and the EC50 [8] was 0.0369 µM. For the same compound, the EC50 [9] was 0.236 µM, the EC50 [10] was 0.0149 µM and the EC50 [11] was 0.376 µM. It also gave an IC50 [12] of 0.052 µM.

With `O=C1Nc2ccc(Cl)cc2[C@@](C#CC2CC2)(C(F)(F)F)O1` [EFAVIRENZ] the EC50 [4] was 0.00236 µM, the EC50 [5] was 0.136 µM and the CC50 at 120 h [13] was > 6.34 µM. For the same compound, the EC50 [6] was 0.0334 µM, the EC50 [8] was 0.00478 µM and the EC50 [9] was 0.199 µM. It also gave an EC50 [10] of 0.00352 µM and an EC50 [11] of 0.154 µM.

With `Cc1cc(C#N)cc(C)c1Oc1nc(Nc2ccc(C#N)cc2)ncc1C#CC(=O)NCCN1CCOCC1` the EC50 [4] was 0.12 µM, the CC50 at 120 h [13] was > 240 µM and the selectivity ratio [1] was > 2000. For the same compound, the selectivity ratio [2] was > 2 and the “Ratio EC50” value [3] was 957.

Compound `Cc1cc(C#N)cc(C)c1Oc1nc(Nc2ccc(C#N)cc2)ncc1C#CC(=O)NCCCN1CCOCC1` has an EC50 [4] of 0.0129 µM, an EC50 [5] of 3.45 µM and a CC50 at 120 h [13] of 59.2 µM. The selectivity ratio [1] was 4600, the selectivity ratio [2] was 17 and the “Ratio EC50” value [3] was 268.
